From patent US20230257817A1, “IDENTIFICATION OF GENOME REGIONS ASSOCIATED WITH KIDNEY DISEASE AND TREATMENT” (THE RESEARCH INSTITUTE AT NATIONWIDE CHILDREN'S HOSPITAL, priority 2020, published 2023)
Entries after “also recorded” stand apart in the source; their conditions may differ.

Tests used:
rats with PAN-induced NS [1] = experiment: PAN-induced nephrotic syndrome rat model, urine protein-to-creatinine ratio; type: in vivo; settings: for Urine protein to creatinine ratio (UPCR): day 11 after single PAN dose 50 mg/kg IV, MP 15 mg/kg i.p. daily, Pio 10 mg/kg oral gavage daily, n=4 rats per group
Description: (§1) Proteinuria was induced in male Wister rats (body weight[…], age˜45-50 d) by single tail vein injection of Puromycin aminonucleoside (PAN, #P7130, Sigma; St. Louis, Mo.) −50 mg/kg, n=4 on Day 0, while the control group received saline injection (n=4). PAN-induced proteinuria was treated daily with methylprednisolone (15 mg/kg, n=4, Solu-Medrol; Pfizer Inc., New York, N.Y.) via intraperitoneal injection or with pioglitazone (10 mg/kg, Actos; Takeda, Deerfield, Ill.) via oral gavage until day 11 of post PAN-injection. Morning spot urine samples were collected on Day 0 (before PAN injection) and day 11 for urinary protein: creatinine ratio (UPC) analysis. Kidneys were harvested at day 11 and were processed for glomerular isolation.
UPC was measured by Antech Diagnostics (Morrisville, N.C.) using standard techniques that are fully compliant with Good Laboratory practice regulations. See Agrawal et al., Sci Rep 6, 24392 (2016)

glomerular genes = experiment: RNA sequencing of glomeruli isolated from PAN-NS rats (glomerular transcriptome); type: in vivo, rat
Description: as §1
Glomeruli were isolated using sieving method where kidney cortex was pared using curved scissors into the petri lid with cold PBS, minced well, drained and washed onto pre-moistened No. 80 sieve. Using squeeze bottle, minced kidneys on No. 80 sieve were washed thoroughly and transferred to No. 140 sieve. No. 140 and 200 are stacked together to catch smaller material. Kidney material was then ground through No. 140 sieve with very gentle pressure using bottom of cold round 250 ml beaker. The ground kidney was washed back and forth well over sieve No. 140 onto No. 200. This catch material is the glomeruli. The glomeruli were washed with cold PBS to get rid of any contaminants and the final washed material was collected into labeled 50 ml conical tube. The tube was spun at ˜1500 rpm for 3 min Glomeruli precipitate was then suspended in RLT buffer (Qiagen, Germantown, Md.) containing β-mercaptoethanol (#M6250 Sigma).
(§2) Total RNA from the isolated glomeruli was isolated using the RNeasy mini Kit (Qiagen) according to the manufacturer's instructions. The purity and yield of RNA was determined by measuring the absorbance at 230, 260 and 280 nm. Briefly, 1 ug of RNA was subjected to DNase (Ambion, Thermo Fisher Scientific) digestion at 37° C. for 30 min followed by DNase inactivation with 5 mM EDTA at 75° C. for 10 min.
RNA quality was assessed using the Agilent 2100 Bioanalyzer and RNA Nano Chip Kit (Agilent Technologies, CA) to ensure that the RNA Integrity Number (RIN) was ≥7. RNA-seq libraries were then generated using TruSeq Standard total RNA with Ribo-Zero Globin Complete kit (Illumina, CA). Briefly, ribosomal RNA (rRNA) was removed from 350 ng of total RNA with biotinylated, target-specific oligos combined with Ribo-Zero rRNA removal beads from the Human/Mouse/Rat Globin kit. To generate directional signals in RNA seq data, libraries were constructed from first strand cDNA using ScriptSeq™ v2 RNA-Seq library preparation kit (Epicentre Biotechnologies, WI). Briefly, 50 ng of rRNA-depleted RNA was fragmented and reverse transcribed using random primers containing a 5′ tagging sequence, followed by 3′ end tagging with a terminal-tagging oligo to yield di-tagged, single-stranded cDNA. Following purification using a magnetic bead-based approach, the di-tagged cDNA was amplified by limit-cycle PCR using primer pairs that anneal to tagging sequences and add adaptor sequences required for sequencing cluster generation. Amplified RNA-seq libraries were purified using AMPure XP System (Beckman Coulter). The quality of libraries was determined via Agilent 2200 TapeStation using High Sensitivity D1000 tape, and quantified using Kappa SYBR®Fast qPCR kit (KAPA Biosystems, Inc, MA). Approximately, 90-125 million paired-end 150 bp reads were generated per sample using the Illumina HiSeq4000 platform. Raw data were converted to FASTQ using Illumina's bc12fastq application. Sequencing adapters matching at least 6 bases were then removed from the reads, as well as low-quality bases (<10) using v1.10 of cutadapt. […]

[2] = test system: human podocyte cell line (MS13); experiment: Real-time PCR of 17 genes-of-interest in PAN-exposed human podocyte cell line; type: cell-based; settings: PAN 2.5 and 5 μg/ml, 24 h and 48 h
Description: (§3) The conditionally immortalized human podocyte cell line (MS13) and human primary mesangial cells were cultured as previously described. Sharma et al., J Am Soc Nephrol 28, 2618-2630 (2017). 3×10^4 undifferentiated podocytes were plated on a 6-well plate and were incubated at 37° C. for 12-14 days prior to the start of experiment whereas 1×10^5 mesangial cells were plated on a 6-well plate a day prior to start of experiment. Further, podocytes and mesangial cells were serum starved 0/N with 1% FCS containing RPMI media, before the experiment. The following day, podocytes were exposed to 2.5 and 5 μg/ml of PAN for 24 and 48 hrs whereas in case of mesangial cells, 5 μg/ml of PAN (Sigma; St. Louis, Mo.) was added for 24 and 48 hrs. Cells were lysed in 400 μl of RNA lysis buffer provided by Ambion (#AM1560).
as §2, with “cultured podocytes and mesangial cells” for “isolated glomeruli”, “miRVANA miRNA isolation kit (Ambion, ThermoScientific)” for “RNeasy mini Kit (Qiagen)”, “instructions. The RNA was eluted in 40 μl of nuclease free water.” for “instructions.”, “μg” for “ug”
(§4) […] of total isolated RNA was reverse transcribed to cDNA by iScript cDNA synthesis kit according to manufacturer's instructions (#1708890. Bio-Rad). The resulting cDNA was diluted to 1:5 with nuclease free water. Diluted cDNA was finally used for relative mRNA quantitation of 17 targets-of-interest using SYBER green based Bio-Rad CFX96 Real-Time PCR machine (Bio-Rad Labs, Hercules, Calif.). Both RPL19 and PPIA were used as reference genes.

[3] = test system: human primary mesangial cells; experiment: Real-time PCR of 17 genes-of-interest in PAN-exposed human primary mesangial cells; type: cell-based; settings: PAN 5 μg/ml, 24 h and 48 h
Description: as §3
as §2, with “cultured podocytes and mesangial cells” for “isolated glomeruli”, “miRVANA miRNA isolation kit (Ambion, ThermoScientific)” for “RNeasy mini Kit (Qiagen)”, “instructions. The RNA was eluted in 40 μl of nuclease free water.” for “instructions.”, “μg” for “ug”
as §4

rats with PAN-induced NS [4] = settings: earlier study, Agrawal et al., Sci Rep 6, 24392 (2016); cited from earlier work
[5] = PAN-NS glomeruli, day 11, FDR<0.05, of 1,872 DEGs
[6] = overlap analysis, common to both treatments

Structure (SMILES): CN(C)c1ncnc2c1ncn2[C@@H]1O[C@H](CO)[C@@H](N)[C@H]1O [PAN, Puromycin aminonucleoside]
- Urine protein to creatinine ratio (UPCR) (rats with PAN-induced NS [1]): 57.2 ± 41.6 mg/mg
- number of glomerular genes significantly downregulated compared to healthy controls (glomerular genes; [5]): 858
- number of glomerular genes significantly upregulated compared to healthy controls (glomerular genes; [5]): 1,014
- CPT1B, PDK4, ANGPTL4, TAGLN and CDKN1A mRNA expression [2]: significant increase in expression
- SERPINE1, MMP14, CCL2, LIF, BIRC5 mRNA expression [2]: did not follow the expected pattern
- LGALS3 mRNA expression ([2]; P=0.0003 vs. controls): induction of expression; also recorded: exclusively enhanced
- CPT1B, PDK4, ANGPTL4, TAGLN and CDKN1A mRNA expression [3]: significant increase in expression
- SERPINE1, MMP14, CCL2, LIF, BIRC5 mRNA expression [3]: did not follow the expected pattern
- MMP2 mRNA expression ([3]; P=0.007 vs. controls): induced; also recorded: markedly upregulated
- ACTA2 mRNA expression ([3]; P=0.045 vs. controls): induced; also recorded: markedly upregulated

Structure (SMILES): CCc1ccc(CCOc2ccc(CC3SC(=O)NC3=O)cc2)nc1 (stereo not shown) [Pio, pioglitazone]
- reduction of proteinuria (UPCR) vs PAN (rats with PAN-induced NS [1]; day 11, PAN+MP or PAN+Pio vs PAN): 94%
- Urine protein to creatinine ratio (UPCR) (rats with PAN-induced NS [1]): 3.45 ± 0.82 mg/mg
- effect on transcriptional profiles of endothelial cell-specific genes (glomerular genes; 42 endothelial genes): neither MP nor Pio treatment had notable effects
- PAN-induced gene expression alterations in podocyte- and mesangial cell-specific gene clusters (glomerular genes; 66 podocyte and 43 mesangial genes, PCA plots): substantially reversed
- number of the 858 glomerular genes downregulated in PAN-NS significantly ameliorated (glomerular genes; FDR<0.05 vs PAN): 144
- number of the 1,014 glomerular genes upregulated in PAN-NS significantly ameliorated (glomerular genes; FDR<0.05 vs PAN): 346
- share of the 858 glomerular genes downregulated in PAN-NS significantly ameliorated (glomerular genes; FDR<0.05 vs PAN): 17%
- share of the 1,014 glomerular genes upregulated in PAN-NS significantly ameliorated (glomerular genes; FDR<0.05 vs PAN): 34%
- PAN-induced dysregulation of glomerular gene sets associated with extracellular matrix and cyclins (GSEA) (glomerular genes; GSEA, FDR<0.05): significantly ameliorated
- number of DEGs significantly induced by PAN but ameliorated by both MP and Pio (glomerular genes; [6]): 319
- number of DEGs significantly suppressed by PAN but ameliorated by both MP and Pio (glomerular genes; [6]): 126
- proteinuria in PAN-induced rat model of NS, previously reported (rats with PAN-induced NS [4]): significantly reduced proteinuria; also recorded: significant proteinuria reduction
